Counter-ions that a name gives are not always drawn.
Target: indoleamine 2,3-dioxygenase (IDO1) (Homo sapiens, UniProt P14902)
Test: PBMC IDO1 assay (kynurenine by mass spectrometry)
Type: cell-based
Conditions: human PBMC stimulated with IFN-γ and LPS, 2 days incubation, kynurenine detected by mass spectrometry; read-out: IDO1 PBMC pIC50 (converted)

Chain of indoleamine 2,3-dioxygenase (IDO1) (P14902 whole entry): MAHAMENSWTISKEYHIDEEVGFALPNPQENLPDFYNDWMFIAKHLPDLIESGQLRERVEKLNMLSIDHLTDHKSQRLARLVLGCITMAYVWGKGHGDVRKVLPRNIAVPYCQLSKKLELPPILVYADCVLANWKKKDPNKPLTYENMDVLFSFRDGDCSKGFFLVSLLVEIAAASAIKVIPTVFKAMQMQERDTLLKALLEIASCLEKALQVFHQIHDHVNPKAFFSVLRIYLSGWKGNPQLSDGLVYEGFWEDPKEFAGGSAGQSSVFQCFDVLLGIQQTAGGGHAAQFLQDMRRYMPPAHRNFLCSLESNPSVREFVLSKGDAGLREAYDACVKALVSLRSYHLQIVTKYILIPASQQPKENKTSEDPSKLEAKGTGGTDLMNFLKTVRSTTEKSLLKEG

Compound | IC50
CCOC(=O)N1CCC2(CC1)C[C@H](NC(=O)c1cccc3cn(COP(=O)(O)O)nc13)c1cc(Br)ccc1O2 [Example 50, 2-amino-2-(hydroxymethyl)propane-1,3-diol hemi((S)-(7-((6-bromo-1-(ethoxycarbonyl)spiro[chroman-2,4′-piperidin]-4-yl)carbamoyl)-2H-indazol-2-yl)methyl phosphate)] | 126 nM
CCOC(=O)N1CCC2(CC1)CC(Nc1nnc(C(F)(F)F)s1)c1ccccc1O2 (centres unmarked) [Example 40, ethyl 4-((5-(trifluoromethyl)-1,3,4-thiadiazol-2-yl)amino)spiro[chroman-2,4′-piperidine]-1′-carboxylate] | 398 nM
COC(=O)N1CCC2(CC1)C[C@H](NC(=O)c1cccc3cc[nH]c13)c1cc(Br)ccc1O2 [Example 4, (S)-methyl 6-bromo-4-(1H-indole-7-carboxamido)spiro[chroman-2,4′-piperidine]-1′-carboxylate] | 3.98 nM
CCOC(=O)N1CCC2(CC1)CC(NC(=O)c1cccc3cn[nH]c13)c1nc(OC)ccc1O2 (centres unmarked) [Example 9, ethyl 4′-(1H-indazole-7-carboxamido)-6′-methoxy-3′,4′-dihydrospiro[piperidine-4,2′-pyrano[3,2-b]pyridine]-1-carboxylate] | 10 nM
CCOC(=O)N1CCC2(CC1)C[C@H](NC(=O)c1cccc3cn(COP(=O)(O)O)nc13)c1cc(Br)ncc1O2 [Example 58, (S)-ethyl 6′-bromo-4′-(2-((phosphonooxy)methyl)-2H-indazole-7-carboxamido)-3′,4′-dihydrospiro[piperidine-4,2′-pyrano[2,3-c]pyridine]-1-carboxylate] | 501 nM
CCOC(=O)N1CCC2(CC1)C[C@H](NC(=O)c1cccc3cn(COP(=O)(O)O)nc13)c1nc(OC)ccc1O2 [Example 56, ethyl (S)-6′-methoxy-4′-(2-((phosphonooxy)methyl)-2H-indazole-7-carboxamido)-3′,4′-dihydrospiro[piperidine-4,2′-pyrano[3,2-b]pyridine]-1-carboxylate, bis 2-amino-2-(hydroxymethyl)-1,3-propanediol salt] | 79.4 nM
CCOC(=O)N1CCC2(CC1)CC(NC(=O)c1cccnc1)c1ccccc1O2 (centres unmarked) [Example 41, ethyl 4-(nicotinamido)spiro[chroman-2,4′-piperidine]-1′-carboxylate] | 501 nM
CCOC(=O)N1CCC2(CC1)CC(NC(=O)c1cccc3nc[nH]c13)c1ccccc1O2 (centres unmarked) [Example 39, ethyl 4-(1H-benzo[d]imidazole-7-carboxamido)spiro[chroman-2,4′-piperidine]-1′-carboxylate] | 398 nM
CCOC(=O)N1CCC2(CC1)CC(NC(=O)c1cccc3cc[nH]c13)c1ccc(Br)cc1O2 (centres unmarked) [Example 24, ethyl 7-bromo-4-(1H-indole-7-carboxamido)spiro[chroman-2,4′-piperidine]-1′-carboxylate] | 100 nM
CCOC(=O)N1CCC2(CC1)C[C@H](NC(=O)c1cccc3c(CO)n[nH]c13)c1cc(Br)ccc1O2 [Example 59, ethyl (S)-6-bromo-4-(3-(hydroxymethyl)-1H-indazole-7-carboxamido) spiro[chromane-2,4′-piperidine]-1′-carboxylate] | 0.794 nM
CCOC(=O)N1CCC2(CC1)CC(NC(=O)c1cccc3cn[nH]c13)c1ccncc1O2 (centres unmarked) [Example 33, ethyl 4′-(1H-indazole-7-carboxamido)-3′,4′-dihydrospiro[piperidine-4,2′-pyrano[2,3-c]pyridine]-1-carboxylate] | 200 nM
COC(=O)N1CCC2(CC1)C[C@H](NC(=O)c1cccc3cn(COP(=O)(O)O)nc13)c1cc(Br)ccc1O2 [Example 53, 2-amino-2-(hydroxymethyl)propane-1,3-diol hemi((S)-(7-((6-bromo-1′-(methoxycarbonyl)spiro[chroman-2,4′-piperidin]-4-yl)carbamoyl)-2H-indazol-2-yl)methyl phosphate)] | 631 nM
CCCC(=O)N1CCC2(CC1)C[C@H](NC(=O)c1cccc3cn[nH]c13)c1cc(Br)ccc1O2 [Example 22, (S)—N-(6-bromo-1′-butyrylspiro[chroman-2,4′-piperidin]-4-yl)-1H-indazole-7-carboxamide] | 79.4 nM
CCOC(=O)N1CCC2(CC1)C[C@H](NC(=O)c1cccc3cnn(C(=O)OCC)c13)c1cc(Br)ccc1O2 [Example 51, ethyl (S)-6-bromo-4-(1-(ethoxycarbonyl)-1H-indazole-7-carboxamido)spiro[chromane-2,4′-piperidine]-1′-carboxylate] | 10 nM
CCOC(=O)N1CCC2(CC1)CC(NC(=O)c1cncc3cn[nH]c13)c1ccccc1O2 (centres unmarked) [Example 26, ethyl 4-(1H-pyrazolo[4,3-c]pyridine-7-carboxamido)spiro[chroman-2,4′-piperidine]-1′-carboxylate] | 126 nM
CCOC(=O)N1CCC2(CC1)CC(NC(=O)c1ncccn1)c1ccccc1O2 (centres unmarked) [Example 45, ethyl 4-(pyrimidine-2-carboxamido)spiro[chroman-2,4′-piperidine]-1′-carboxylate] | 794 nM
CCOC(=O)N1CCC2(CC1)CC(NC(=O)c1cncc(F)c1)c1ccccc1O2 (centres unmarked) [Example 30, ethyl 4-(5-fluoronicotinamido)spiro[chroman-2,4′-piperidine]-1′-carboxylate] | 200 nM
CCOC(=O)N1CCC2(CC1)C[C@H](NC(=O)c1cccc3[nH]ccc13)c1cc(Br)ccc1O2 [Example 8, (S)-ethyl 6-bromo-4-(1H-indole-4-carboxamido)spiro[chroman-2,4′-piperidine]-1′-carboxylate] | 5.01 nM

Compound | IC50
COC(=O)N1CCC2(CC1)C[C@H](NC(=O)c1cccc3cn[nH]c13)c1ccccc1O2 [Example 54, methyl (S)-4-(1H-indazole-7-carboxamido)spiro[chromane-2,4′-piperidine]-1′-carboxylate] | 20 nM
CCOC(=O)N1CCC2(CC1)CC(NC(=O)c1cccc3cn[nH]c13)c1cccnc1O2 (centres unmarked) [Example 42, ethyl 4′-(1H-indazole-7-carboxamido)-3′,4′-dihydrospiro[piperidine-4,2′-pyrano[2,3-b]pyridine]-1-carboxylate] | 501 nM
CCOC(=O)N1CCC2(CC1)C[C@H](NC(=O)c1cccc3cnn(C(C)=O)c13)c1cc(Br)ccc1O2 [Example 52, ethyl (S)-4-(1-acetyl-1H-indazole-7-carboxamido)-6-bromospiro [chromane-2,4′-piperidine]-1′-carboxylate] | 3.98 nM
CCOC(=O)N1CCC2(CC1)CC(NC(=O)c1cccc3cn[nH]c13)c1ncccc1O2 (centres unmarked) [Example 29, ethyl 4′-(1H-indazole-7-carboxamido)-3′,4′-dihydrospiro[piperidine-4,2′-pyrano[3,2-b]pyridine]-1-carboxylate] | 158 nM
CCOC(=O)N1CCC2(CC1)CC(NC(=O)c1cccnc1)c1nc(OC)ccc1O2 (centres unmarked) [Example 35, ethyl 6′-methoxy-4′-(nicotinamido)-3′,4′-dihydrospiro[piperidine-4,2′-pyrano[3,2-b]pyridine]-1-carboxylate] | 251 nM
CCOC(=O)N1CCC2(CC1)C[C@H](NC(=O)c1ccn[nH]1)c1cc(Br)ccc1O2 [Example 44, (S)-ethyl 6-bromo-4-(1H-pyrazole-5-carboxamido)spiro[chroman-2,4′-piperidine]-1′-carboxylate] | 631 nM
CCOC(=O)N1CCC2(CC1)CC(NC(=O)c1cccnc1)c1cc(Br)ccc1O2 (centres unmarked) [Example 21, ethyl 6-bromo-4-(nicotinamido)spiro[chroman-2,4′-piperidine]-1′-carboxylate] | 79.4 nM
CCOC(=O)N1CCC2(CC1)C[C@H](NC(=O)c1ncc[nH]1)c1cc(Br)ccc1O2 [Example 32, (S)-ethyl 6-bromo-4-(1H-imidazole-2-carboxamido)spiro[chroman-2,4′-piperidine]-1′-carboxylate] | 200 nM
CCOC(=O)N1CCC2(CC1)CC(NC(=O)c1ccccn1)c1ccccc1O2 (centres unmarked) [Example 34, ethyl 4-(picolinamido)spiro[chroman-2,4′-piperidine]-1′-carboxylate] | 251 nM
CCOC(=O)N1CCC2(CC1)CC(NC(=O)c1cccc3cc[nH]c13)c1c(Br)cccc1O2 (centres unmarked) [Example 17, ethyl 5-bromo-4-(1H-indole-7-carboxamido)spiro[chroman-2,4′-piperidine]-1′-carboxylate] | 39.8 nM
CCOC(=O)N1CCC2(CC1)CC(NC(=O)c1cccc3cn[nH]c13)c1cc(CO)ccc1O2 (centres unmarked) [Example 18, ethyl 6-(hydroxymethyl)-4-(1H-indazole-7-carboxamido)spiro[chroman-2,4′-piperidine]-1′-carboxylate] | 39.8 nM
CCOC(=O)N1CCC2(CC1)CC(NC(=O)c1ncccc1OC)c1ccccc1O2 (centres unmarked) [Example 46, ethyl 4-(3-methoxypicolinamido)spiro[chroman-2,4′-piperidine]-1′-carboxylate] | 794 nM
O=C(N[C@H]1CC2(CCN(C(=O)Oc3ccccc3)CC2)Oc2ccc(Br)cc21)c1cccc2cn[nH]c12 [Example 31, (S)-phenyl 6-bromo-4-(1H-indazole-7-carboxamido)spiro[chroman-2,4′-piperidine]-1′-carboxylate] | 200 nM
CCOC(=O)N1CCC2(CC1)CC(NC(=O)c1cccc3ccn(C)c13)c1ccccc1O2 (centres unmarked) [Example 38, ethyl 4-(1-methyl-1H-indole-7-carboxamido)spiro[chroman-2,4′-piperidine]-1′-carboxylate] | 398 nM
CCOC(=O)N1CCC2(CC1)C[C@H](NC(=O)c1cccc3c(COC(=O)CCC(=O)O)[nH]nc13)c1cc(Br)ccc1O2 [Example 60, (S)-4-((7-((6-bromo-1′-(ethoxycarbonyl)spiro[chromane-2,4′-piperidin]-4-yl)carbamoyl)-1H-indazol-3-yl)methoxy)-4-oxobutanoic acid] | 1.26 nM
CCOC(=O)N1CCC2(CC1)C[C@H](NC(=O)c1ccccc1N)c1cc(Br)ccc1O2 [Example 10, (S)-ethyl 4-(2-aminobenzamido)-6-bromospiro[chroman-2,4′-piperidine]-1′-carboxylate] | 12.6 nM
CCOC(=O)N1CCC2(CC1)CC(NC(=O)c1cccc3cn[nH]c13)c1cc(Br)ncc1O2 (centres unmarked) [Example 16, ethyl 6′-bromo-4′-(1H-indazole-7-carboxamido)-3′,4′-dihydrospiro[piperidine-4,2′-pyrano[2,3-c]pyridine]-1-carboxylate] | 31.6 nM

Reference: patent US10906924B2, “Modulators of indoleamine 2,3-dioxygenase” (GLAXOSMITHKLINE INTELLECTUAL PROPERTY DEVELOPMENT LIMITED, priority 2017, dated 2021)
